For assay [1], the system named is Frankliniella occidentalis. Nature of the assay: Resistance ratio, LC50 for Frankliniella occidentalis MLFOM (western flower thrips) to LC50 for Frankliniella occidentalis ACR. The format is functional.
For assay [2], the system named is Frankliniella occidentalis. Description: Insecticidal activity against Frankliniella occidentalis ACR (western flower thrips). Type of assay: functional, organism-based.
Assay [3] relates to Frankliniella occidentalis. Nature of the assay: Insecticidal activity against Frankliniella occidentalis MLFOM (western flower thrips). The format is functional.
In assay [4] the test system is Frankliniella occidentalis. Nature of the assay: Resistance ratio, LC50 for Frankliniella occidentalis MLFOM (western flower thrips) to LC50 for Frankliniella occidentalis FOR. Type of assay: functional.
Assay [5] deals with Frankliniella occidentalis. Nature of the assay: Insecticidal activity against Frankliniella occidentalis FOR (western flower thrips). The format is functional, organism-based.
Assay [6] in a line: Inhibition of Frankliniella occidentalis MET (western flower thrips) total esterase activity.
The nature of assay [7]: Inhibition of Frankliniella occidentalis ACR (western flower thrips) total esterase activity.
A short description of assay [8]: Inhibition of Frankliniella occidentalis FOR (western flower thrips) total esterase activity.
Assay [9] can be described thus: Inhibition of Frankliniella occidentalis MLFOM (western flower thrips) total esterase activity.
In assay [10] the test system is Frankliniella occidentalis. Description: Resistance ratio, LC50 for Frankliniella occidentalis MLFOM (western flower thrips) to LC50 for Frankliniella occidentalis MET. The format is functional.
Assay [11] relates to Frankliniella occidentalis. Description: Insecticidal activity against Frankliniella occidentalis MET (western flower thrips). Type of assay: functional.

`CC1(C)[C@H](C(=O)O[C@H](C#N)c2cccc(Oc3ccccc3)c2)[C@@H]1/C=C\C(=O)OC(C(F)(F)F)C(F)(F)F` [ACRINATHRIN]: the RatioLC50 in assay [1] came out at 1430. Also, the LC50 in assay [2] is recorded as 12870 mgAi/L; in [3], 9 mgAi/L.

As to `CNC(=O)Oc1cccc(/N=C/N(C)C)c1` [FORMETANATE], the RatioLC50 in [4] is on record as 26. Further, the LC50 in assay [5] was 20160 mgAi/L; in assay [3], 765 mgAi/L.

Take `CNC(=O)Oc1cc(C)c(SC)c(C)c1` [METHIOCARB]: the IC50 in assay [6] stood at 1.98 µM; in assay [7], 2.71 µM; in assay [8] it was 2.93 µM; in assay [9], 1.92 µM; in assay [5] (Frankliniella occidentalis, FOR) it was 2.93 µM; in assay [2] (Frankliniella occidentalis, ACR) it was 2.71 µM. In assay [10], the RatioLC50 is listed as 41. The values for the LC50 in assay [11] and in assay [3] were 620 mgAi/L and 15 mgAi/L, respectively.

As for `CCCCOCCOCCOCc1cc2c(cc1CCC)OCO2` [PIPERONYL BUTOXIDE], the 50% inhibitory concentration (IC50) worked out at 2160 µM in assay [6], 2670 µM in [7], 1910 µM in assay [8] and 2410 µM in assay [9].

Regarding `CCCCSP(=O)(SCCCC)SCCCC` [S,S,S,-TRIBUTYLPHOSPHOROTRITHIOATE], the IC50 in assay [6] was 0.52 µM; in assay [7] it was 0.45 µM; in assay [8] it was 0.51 µM; in assay [9], 0.46 µM.

As usually defined, the IC50 is the concentration needed to halve the response being measured.

The record behind these values is ChEMBL document CHEMBL3045127, “Esterase inhibition by synergists in the western flower thrips Frankliniella occidentalis” (Pest Manag Sci, 2011).
